Laboratory results from US5939578A, “Vasomolol: an ultra short-acting and vasodilatory vanilloid type β - adrenoceptor antagonist” (Lin; Tong-Ho, priority 1996, dated 1999).

Assays:
[1] = Blood pressure and heart rate responses to intravenous injection in anesthetized rats; assay type: in vivo, pentobarbital-anesthetized normotensive Wistar rats
Procedure: Measurement of blood pressure and heart rate
The method reported in Gen.
(§1) vasomolol (0.5, 1.0, 3.0 mg/kg)

[2] = test system: phenylephrine-induced pressor response; test: Inhibition of phenylephrine-induced pressor response during intravenous infusion; assay type: in vivo, reserpinized rats; settings: infusion 300 μg/kg/min; phenylephrine 10 μg/kg i.v.; data not shown
Procedure: The method reported in Gen. Pharmacol. 24, 1425, 1993 (by inventor group),
phenylephrine (10 μg/klg, i.v.)

β-adrenergic receptor = test: β-blockade and duration of action: inhibition of (-)isoproterenol-induced tachycardia during and after infusion; assay type: in vivo, pentobarbital-anesthetized rats
Procedure: Vasomolol (100 μg/kg/min) was infused consecutively into a femoral vein in pentobarbital-anesthetized rats. Each perfusion was maintained for 60 min. Before and during the infusion of vasomolol and esmolol, at 10-min intervals, bolus i.v. injections of (-) isoproterenol (0.5. μg/kg) were administered to assess the level of β-blockade. (-) lsoproterenol injections were also continued for 60 min. after termination of the highest dose of vasomolol and esmolol to assess the duration of β-blockade reported in J. Pharm. Exp. Ther. 237, 912, 1986 (by Quon, C. Y. et al.). The percentage of inhibition of the (-)isoproterenol-induced tachycardia parameter of β-blockade--was calculated during and after infusions of vasomolol.
isoproterenol (0.5 μg/kg)
as §1

[3] = biological target: T1, β1-adrenoceptor (right atrium) (Cavia porcellus, UniProt H0W3H1); test: β-adrenoceptor antagonism in isolated spontaneously-beating right atria (isoproterenol chronotropic response); set-up: species or system guinea-pig
T1 construct: Spontaneously-beating right atria were removed from the hearts and mounted in a 10 ml organ bath; from tissue; host or cells: isolated guinea-pig (Hartley) right and left atria
Procedure: Guinea-pigs (Hartley) of either sex weighing between 350 and 500 g were sacrificed by a blow on the head. Their hearts and trachea were quickly excised and excess tissue was removed. […] The atrial strip was prestretched to a baseline tension of 0.2 g. […] The atria were then allowed a 30-60 min washout period to estabilize, after which time various concentrations of the test compound were incubated with the atrium 30 min before the cumulative concentrations of the (-) isoproterenol ([…]) was added. All responses to (-) isoproterenol were calculated as a percentage of the maximum control response to (-) isoproterenol.
The pA2 values and slope values were calculated from individual Schild plots by regression analysis. The β1 /β2 -selectivity ratio was obtained from the antilogarithm of the difference between the mean pA2 values obtained from right atrium and trachea.
Mean cumulative concentration-response curves are shown for the positive chronotropic responses to (-) isoproterenol in spontaneously-beating guinea-pig right atria, positive inotropic responses to (-) isoproterenol in electrically driven guinea-pig left atria, and relaxant effects to (-) isoproterenol in guinea-pig spontaneous tone tracheal strips in the absence (.smallcircle.) or presence of 0.01 (.circle-solid.), 0.1, 1 (.tangle-soliddn.) or 10 (.diamond.) μM of vasomolol.

β1/β2-adrenoceptors = test: β1/β2-selectivity from mean pA2 values of right atria and trachea; set-up: species or system guinea-pig
Procedure: The β1 /β2 -selectivity ratio was obtained from the antilogarithm of the difference between the mean pA2 values obtained from the right atria and trachea as described in J. Pharm. […] The pA2 values and slope values were calculated from individual Schild plots by regression analysis. The β1 /β2 -selectivity ratio was obtained from the antilogarithm of the difference between the mean pA2 values obtained from right atrium and trachea.

[4] = test system: right atria and left atrial strips; test: Intrinsic sympathomimetic activity in isolated right atria and left atrial strips; set-up: species or system reserpinized guinea-pigs; settings: for intrinsic sympathomimetic activity: effect on heart rate and contractility: cumulative concentrations, in words
Procedure: Animals were pretreated with reserpine (10 mg/kg, i.p.) 24 hr prior to the experiment described in Naunyn-Schmiedeberg's Arch. […] All preparations including isolated right atria and left atria strips were studied.
All measurements are expressed as mean percentages of the control frequency or force in the same preparation.

[5] = biological target: T2, β-adrenoceptor, ventricular membranes (Sus scrofa, UniProt Q28998); test: Competition for [3H]-DHA binding to ventricular membranes; set-up: species or system pig
T2 construct: tissue local slaughterhouse; host or cells: pig heart ventricular membranes
Procedure: Pig's heart were obtained from a local slaughterhouse immediately after the animals had been killed and transported to our laboratory in ice-cold buffer (250 mM sucrose/50 mM Tris [hydroxymethyl] aminomethane HCl/1 mM magnesium chloride, pH 7.4). Various heart tissues were removed and prepared as detailed as described in Cardiovasc. […] In the test for receptor binding, the ventricles were placed in ice-cold buffer and all subsequent procedures were carried out at 4° C. The tissue was homogenised in 20 volumes of TE buffer (10 mmole.litre^-1 Tris-HCl, 1 mmole.litre^-1 EDTA, 0.1 mmole.litre^-1 ascorbic acid, pH 7.4) with three 12-s pulses using a Polytron homogenizer (Kinematica, Model PT 3000, Switzerland). The homogenate was filtered with pressure through muslin and the filtrate centrifuged for 10 min at 1000 g to remove connective tissue, unbroken cells and cell debris.
This membrane preparation has been described in Biochem. Biophys. Acta. […] The binding assay of [^3 H]-DHA was carried out as described in Biochem. Biophys. Res. Commun. […] [^3 ]-DHA and ventricular membranes (200-300 μg) were incubated for 60 min at 25° C. with and without the addition of 1 μM alprenolol, in 75 mM Tris-HCI buffer comprising MgCl2 25 mM, to make a final volume of 250 μl. In competitive binding experiments, the competing agent was added directly to the incubation mixture. The incubation was terminated by addition of 1 ml of ice-cold assay buffer followed by immediate filtration through Whatman GF/C glass fiber filters supported on a 12-port filter manifold (Millipore). The filters were immediately washed three times with 5 ml of ice-cold assay buffer and dried in an oven at 60° C. for 2 hr prior to adding 5 ml of Triton-toluene based scintillation fluid.
In each experiment, non-specifically bound [^3 H]-DHA was determined by incubating membrane protein and [^3 H]-DHA with 1 μM alprenolol. Specific binding was thus obtained by deducing this value from the total binding of [^3 H]-DHA for each sample.
All incubations were performed as described in the method section. Data shown are the means of three independent duplicate determinations.

[6] = 0.5 mg/kg i.v., mean ± SEM (n = 8)
[7] = 1.0 mg/kg i.v., mean ± SEM (n = 8)
[8] = 3.0 mg/kg i.v., mean ± SEM (n = 8)

T1 sequence (H0W3H1 1-470): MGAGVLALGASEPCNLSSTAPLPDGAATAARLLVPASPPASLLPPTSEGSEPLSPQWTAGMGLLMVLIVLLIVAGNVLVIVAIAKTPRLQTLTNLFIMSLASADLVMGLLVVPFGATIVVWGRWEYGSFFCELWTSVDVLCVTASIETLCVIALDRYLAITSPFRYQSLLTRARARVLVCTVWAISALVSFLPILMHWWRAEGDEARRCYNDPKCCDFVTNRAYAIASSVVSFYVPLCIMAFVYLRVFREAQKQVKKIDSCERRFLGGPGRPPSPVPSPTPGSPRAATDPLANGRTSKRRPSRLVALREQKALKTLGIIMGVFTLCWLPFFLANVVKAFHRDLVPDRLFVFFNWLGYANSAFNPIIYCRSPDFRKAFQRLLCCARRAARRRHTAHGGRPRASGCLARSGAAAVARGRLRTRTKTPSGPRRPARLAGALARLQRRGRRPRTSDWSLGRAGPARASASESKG
T2 sequence (Q28998 whole entry): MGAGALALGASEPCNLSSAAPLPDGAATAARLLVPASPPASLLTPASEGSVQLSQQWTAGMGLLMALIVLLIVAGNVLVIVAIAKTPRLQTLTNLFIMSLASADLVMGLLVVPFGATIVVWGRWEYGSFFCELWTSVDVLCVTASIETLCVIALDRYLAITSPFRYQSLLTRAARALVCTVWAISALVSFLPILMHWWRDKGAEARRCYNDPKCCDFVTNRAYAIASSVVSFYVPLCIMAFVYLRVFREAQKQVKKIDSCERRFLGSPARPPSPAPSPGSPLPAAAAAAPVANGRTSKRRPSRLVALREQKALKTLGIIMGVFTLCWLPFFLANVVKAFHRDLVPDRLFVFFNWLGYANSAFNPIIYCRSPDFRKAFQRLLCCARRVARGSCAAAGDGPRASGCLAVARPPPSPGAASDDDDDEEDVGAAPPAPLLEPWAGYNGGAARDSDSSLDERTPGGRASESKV

CCOC(=O)c1ccc(OCC(O)CNC(C)(C)C)c(OC)c1 (centres unmarked) [Vasomolol]
BP change [1, 6]: -4.5 ± 1.4 mm Hg
HR change [1, 6]: -20.0 ± 2.3 bpm
bradycardia duration [1, 6]: 3.5 ± 0.7 min
BP change [1, 7]: -6.5 ± 1.9 mm Hg
HR change [1, 7]: -34.5 ± 2.8 bpm
bradycardia duration [1, 7]: 7.2 ± 0.8 min
BP change [1, 8]: -10.8 ± 1.2 mm Hg
HR change [1, 8]: -50.0 ± 3.4 bpm
bradycardia duration [1, 8]: 8.0 ± 1.2 min
bradycardia duration ([1]; i.v. injection): less than 10 min
blood pressure and heart rate effect ([1]; i.v. injection 0.5, 1.0, 3.0 mg/kg, in words): produced a hypotensive action and a decrease in heart rate
inhibition of phenylephrine-induced pressor response [2]: could not significantly inhibit
onset of β-blockade to steady-state level (β-adrenergic receptor; after initiating each infusion rate, isoproterenol 0.5 μg/kg): ≤ 10 min
time required for 50% recovery (β-adrenergic receptor; after termination of infusion, mean±S.E.M.): 9.5 ± 1.0 min
disappearance of β-blockade after termination of infusion (β-adrenergic receptor; in words): disappeared rapidly after the termination of infusion
antagonism of isoproterenol-induced positive chronotropic actions ([3]; 5×10^-8 -10^-6 M, right atrial strips): caused a dose-dependent parallel shift to the right of the isoproterenol concentration-response curves
pA2 value, β1, right atrium ([3]; mean ± SEM, six to eight experiments, 30 min): 7.41 ± 0.05
Schild slope, right atrium ([3]; regression of Schild plot): 0.90 ± 0.04
β1/β2 selectivity in words (β1/β2-adrenoceptors): selective for β1-adrenoceptors
β1/β2-selectivity ratio (β1/β2-adrenoceptors; antilogarithm of difference between mean pA2 of right atrium and trachea): 39.8
potency on right atria versus trachea (β1/β2-adrenoceptors; from mean pA2 values): 39.8 times
intrinsic sympathomimetic activity: effect on heart rate and contractility [4]: did not induce an increase in the heart rate or contractility
intrinsic sympathomimetic activity: effect on heart rate and contractility ([4]; listed as vasomolol): Lack of intrinsic sympathomimetic activity
concentration causing negative inotropic and chronotropic effects ([4]; right atria rate and left atria tension): ≥ 10^-5 M
order of potency inhibiting [3H]-DHA binding ([5]; in words): (-) propranolol>>vasomolol=esmolol
IC50 ([5]; mean±S.E.M.): 4.7 ± 1.5 µM
